Test results published in the OPERA property sets (Mansouri et al. 2018).

Row | SMILES | logP
1 | Cn1c([N+](=O)[O-])cnc1Cl | 0.62
2 | Cn1cc([N+](=O)[O-])nc1Br | 0.33
3 | Cn1cnc(Cl)c1[N+](=O)[O-] | 0.69
4 | Cn1cncc1[N+](=O)[O-] | 0.13
5 | COc1c([N+](=O)[O-])ncn1C | 0.19
6 | COc1nc[nH]c1[N+](=O)[O-] | 0.13
7 | Cc1[nH]c(Br)nc1[N+](=O)[O-] | 0.86
8 | Cn1ccnc1[N+](=O)[O-] | -0.17
9 | Cn1cc([N+](=O)[O-])nc1Cl | 0.19
10 | COc1nc(C)[nH]c1[N+](=O)[O-] | 0.21
11 | O=[N+]([O-])c1nc[nH]c1Cl | 0.78
12 | Cn1cnc([N+](=O)[O-])c1 | -0.44
13 | Cc1nc([N+](=O)[O-])c(Br)[nH]1 | 1.14
14 | Cn1cnc([N+](=O)[O-])c1Br | 0.36
15 | Cn1cnc(Br)c1[N+](=O)[O-] | 0.77
16 | O=[N+]([O-])c1nc[nH]c1Br | 0.85
17 | Cc1[nH]cnc1[N+](=O)[O-] | 0.23
18 | Cc1nc(Br)n(C)c1[N+](=O)[O-] | 0.82
19 | Cn1cnc([N+](=O)[O-])c1N | -1
